# Test results as given in patent US8895522B2, “Composition and method for the prevention, treatment and/or alleviation of an inflammatory disease” (Index Pharmaceuticals AB, priority 2005, dated 2014).
# In the oligonucleotide strings, read from the 5' end, every base follows the letter of its sugar. An asterisk marks phosphorothioate; unmarked linkages are phosphodiester. Other units and linkages are bracketed, terminal groups are in braces. A string of capitals states the bases alone. d = 2'-deoxy (DNA)
# How the values were obtained:
# [1] = test system: human PBMC from steroid resistant asthmatics or healthy donors; test: Cytokine production in PBMC from steroid resistant asthmatics or healthy donors (Cytometric Bead Array); type: cell-based; conditions: 25 μM or 100 μM, 48 hours, CBA
# Description: Blood samples were obtained from healthy volunteers or steroid resistant asthmatics. PBMC were isolated by density gradient centrifugation using Ficoll-Paque Plus (Pharmacia Biotech, Uppsala, Sweden), washed three times in buffered saline solution (PBS), and re-suspended in RPMI 1640 (Sigma) containing 10% heat inactivated fetal calf serum (FCS) (Life Technologies), 100 U/mL penicillin 100 μg/mL streptomycin (Life Technologies), 2 mM L-glutamine (Sigma), gentamycin (Sigma) and 5 mM Hepes (Gibco, Life Technologies). Cells were counted using 0.4% Trypan blue solution (Sigma Aldrich)
# PBMC, prepared as previously described were, directly after seeding, stimulated with SEQ.ID.NO. 1. (25 μM and 100 μM) in the presence or absence of Dex (10^−6, 10^−8 and 10^−10 M) into a 96-well flat bottomed cell culture plate at 500 000 cells/well in RPMIc. As control ODN, 1 μM of IDX0910 was used. After treatment, cells were incubated in a humified incubator at 5% carbon dioxide and 37° C. for 48 hrs. Supernatants were saved and stored at −20° C. prior to cytokine level determination.
# The supernatants were kept at −20° C. until analyzed. IFN-, IL-6, IL-10, IL-2, IL-4 and TNF-alpha were measured utilizing the Cytometric Bead Array (CBA) from Becton Dickenson (BD), according to the manufacturer's protocol. The lower detection limit was 20 pg/ml for each cytokine. The FACSCalibur was used for all CBA analysis for this study.
# PBMCs were incubated in medium (basal) or with 25 μM (hatched bars) or 100 μM (dotted bars) of the CpG containing SEQ.ID.NO.1 for 48 hours before detection of IL-6 in supernatant. Each bar of the histogram represents average amount of IL-6 production from 9 healthy donors and 9 steroid resistant asthmatics. Experiments were performed in triplicate for each blood donor. Background levels of IL-6 (medium) were subtracted from each group of samples.
# [2] = test system: patients with mild to moderately active ulcerative colitis; test: Clinical phase II study in ulcerative colitis patients; type: in vivo, human; conditions: for Clinical response at Week 1: No, n (%) / Clinical response at Week 1: Yes, n (%): single rectal dose, ITT/Safety population; for clinical response rate at week 1, all receiving active drug: all four dose levels pooled (26/119)
# Description: A large 150 patient study performed in ulcerative colitis patients who were neither on concomitant steroid therapies nor were described as being steroid refractory/dependent.
# Primary objective: To evaluate the ability of each of the four dose levels (0.3 mg, 3 mg, 30 mg and 100 mg) of oligonucleotide SEQ.ID.NO.1 as an anti-inflammatory therapy to induce clinical remission in patients with mild to moderately active ulcerative colitis (UC), as compared with placebo.
# Secondary objective: To assess the tolerability of single rectal doses of SEQ.ID.NO.1 oligonucleotide and to further evaluate the efficacy and safety of SEQ.ID.NO.1 oligonucleotide at four dose levels and to assess the pharmacokinetics of SEQ.ID.NO.1 oligonucleotide after rectal administration, as compared to placebo.
# [3] = test system: human PBMC; test: Induction of IFN-gamma from healthy human PBMC (ELISpot); type: cell-based; conditions: PBMC from 7 healthy individuals, 48 hours, FIG. 12
# Description: (§1) Whole blood was obtained from healthy blood donors. PBMCs were prepared from 30 ml whole blood according to the following protocol:
# (§2) 30 ml blood was transferred directly into heparinized tubes. All blood was transferred into one 50 ml Falcon tube and PBS added up to 50 ml. 15 ml Ficoll (17-1440-03, obtained from Amersham Bioscience AB, Uppsala) was then added into two falcon tubes (50 ml). The PBS-treated blood was then carefully added on the top of to Ficoll, 25 ml to each tube. The tubes were then centrifuged 25 min at 1700 RPM at RT (20° C.).
# RPMIc medium was prepared under sterile conditions, using a 0.22 uM filter. (RPMIc denotes a RPMI 1640 culture medium (R0883, Sigma) supplemented with 5% heat-inactivated (56° C.,1 h) FCS 1.5 mM L-glutamine (G7513, Sigma), 100 U/ml penicillin and 100 ug/ml streptomycin, PEST (P0781, Sigma), hepes (H0887, Sigma), and gentamycin (G1272, Sigma)). […]
# The cells were counted and left in PBS, then centrifuged at 1200 RPM, 10 min. Medium was then added to obtain the concentration of interest, and the cells counted (16 squares)×3. The mean value was calculated and multiplied with the dilution factor×10^4=cells/ml. […]
# Elispot assays where performed according to the manufactures recommended guidelines (MabTech) and the plates were analyzed using an AID ELISpot reader system (Autoimmun Diagnostika GmbH, Strassberg, Germany). […]
# [4] = test system: human PBMC; test: Induction of IFN-alpha from healthy human PBMC (ELISpot); type: cell-based; conditions: PBMC from 10 healthy individuals, 48 hours
# Description: as §1, §2
# RPMIc medium was prepared under sterile conditions, using a 0.22 uM filter. (RPMIc denotes a RPMI 1640 culture medium (R0883, Sigma) supplemented with 5% heat-inactivated (56° C.,1 h) FCS 1.5 mM L-glutamine (G7513, Sigma), 100 U/ml penicillin and 100 ug/ml streptomycin, PEST (P0781, Sigma), hepes (H0887, Sigma), and gentamycin (G1272, Sigma)).
# The interphase was carefully pipetted from the two tubes into 2x 50mi Falcon tubes. PBS was added up to 50 ml in each tube, and the tubes centrifuged for 10 min at 1700 RPM (4° C.).
# The supernatant was discarded, and PBS added to 30 ml, whereupon the tubes were centrifuged at 10 min at 1500 RPM (4° C.). Again, the supernatant was discarded, 10 ml PBS added, and the pellets from the two falcon tubes pooled.
# The cells were counted and left in PBS, then centrifuged at 1200 RPM, 10 min. Medium was then added to obtain the concentration of interest, and the cells counted (16 squares)×3. The mean value was calculated and multiplied with the dilution factor×10^4=cells/ml. Diluting the cells to 10 million/ml will result in 500.000 cells/50 ul medium, 6 million/ml will be 300.000/50 ul medium.
# Elispot assays where performed according to the manufactures recommended guidelines (MabTech) and the plates were analyzed using an AID ELISpot reader system (Autoimmun Diagnostika GmbH, Strassberg, Germany).
# For this assay again 500,000 PBMC cells per well, derived from healthy human blood were incubated for 48 hours in the presence of the different oligonucleotides. Specifically, SEQ.ID.NO 1, SEQ.ID.NO 2, and SEQ.ID.NO 8. Following incubation, the wells were developed according to the kit suppliers recommendations and the average number of positive cells producing IFN-alpha per well were determined using an AID ELISpot reader.
substance,measurement,setting,value
"5′-G*G*A*ACAGTTCGTCCAT*G*G*C-3′ (DNA dG*dG*dA*dAdCdAdGdTdTdCdGdTdCdCdAdT*dG*dG*dC) [SEQ.ID.NO 1, (Hu p65)AS, CpG-containing ODN; * marks phosphorothioate linkage, others phosphodiester]","IL-6 induced, steroid resistant PBMCs compared to healthy PBMCs",[1]; 9 healthy donors and 9 steroid resistant asthmatics,significantly lower
same,"IL-10 induced, steroid resistant PBMCs compared to healthy PBMCs",[1],significantly lower
same,"interferon-gamma induced, steroid resistant PBMCs compared to healthy PBMCs",[1],significantly lower
same,"Clinical response at Week 1: No, n (%)",[2]; 0.3 mg (N = 31),23 (74.2) n (%)
same,"Clinical response at Week 1: Yes, n (%)",[2]; 0.3 mg (N = 31),8 (25.8) n (%)
same,"Clinical response at Week 1: No, n (%)",[2]; 3 mg (N = 29),23 (79.3) n (%)
same,"Clinical response at Week 1: Yes, n (%)",[2]; 3 mg (N = 29),6 (20.7) n (%)
same,"Clinical response at Week 1: No, n (%)",[2]; 30 mg (N = 30),23 (76.7) n (%)
same,"Clinical response at Week 1: Yes, n (%)",[2]; 30 mg (N = 30),7 (23.3) n (%)
same,"Clinical response at Week 1: No, n (%)",[2]; 100 mg (N = 29),24 (82.8) n (%)
same,"Clinical response at Week 1: Yes, n (%)",[2]; 100 mg (N = 29),5 (17.2) n (%)
same,"clinical response rate at week 1, all receiving active drug",[2],22%
same,"clinical response rate at week 1, all receiving active drug",[2]; listed as Active,22%
same,"induction of clinical, endoscopic or histopathological remissions or responses","[2]; one single dose from 0.3 to 100 mg, over a 12 week period",could not confirm
same,safety profile,[2]; single rectal doses 0.3 to 100 mg,good safety profile
same,concentration at which induction of IFN-gamma becomes apparent,[3],around 25 uM
same,concentration at which induction of IFN-alpha starts / is apparent,[4],1 µM
same,induction of IFN-alpha producing cells,[4]; FIG. 13,clear inducing potential
